Series [1] has as its system HCT-116 cells. Kind of series: Clonogenic assay, proliferating (P) versus quiescent (Q) cells. Particulars: for P/Q selectivity: ratio derived from the IC90s on HCT116 cells; for IC90: Homo sapiens, HCT-116, P cells, 16 hr treatment. The series is classed as cell-based, human. The protocol:
Tumor Cell Lines. […] Proliferating cultures were set up by plating 3×10^5 cells in 10 ml of RPMI medium in T75 flasks on day 0 and treated with compounds (dissolved in fresh medium) on day 2 or 3. Quiescent cultures were set up by plating 3×10^5 cells in 10 ml of RPMI media in T75 flasks on day 0, changing medium on day 2, and treated with drugs dissolved in spent media on day 6 for 17 hr.
Clonogenic Assay. […] After 10 days incubation at 37° C., colonies were stained with crystal violet.

Series [2] has as its target T1, Rab geranylgeranyl transferase (GGTII) (Homo sapiens, UniProt P53611+Q92696).
T1 sequence (Q92696 1-567): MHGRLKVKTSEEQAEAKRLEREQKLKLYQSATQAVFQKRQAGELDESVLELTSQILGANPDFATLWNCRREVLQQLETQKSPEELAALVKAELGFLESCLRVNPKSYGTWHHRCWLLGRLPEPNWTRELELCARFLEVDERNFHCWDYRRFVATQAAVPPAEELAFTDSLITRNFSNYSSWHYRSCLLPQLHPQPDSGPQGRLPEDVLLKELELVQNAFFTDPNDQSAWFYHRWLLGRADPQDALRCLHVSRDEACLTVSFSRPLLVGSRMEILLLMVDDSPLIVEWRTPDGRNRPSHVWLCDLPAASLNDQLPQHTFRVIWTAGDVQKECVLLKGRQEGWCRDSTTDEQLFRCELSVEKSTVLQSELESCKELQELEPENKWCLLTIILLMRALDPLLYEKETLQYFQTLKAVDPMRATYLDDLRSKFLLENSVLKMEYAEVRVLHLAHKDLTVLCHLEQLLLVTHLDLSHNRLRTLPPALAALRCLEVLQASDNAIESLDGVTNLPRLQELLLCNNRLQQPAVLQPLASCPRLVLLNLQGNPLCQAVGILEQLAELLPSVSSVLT
T1 sequence (P53611 1-331): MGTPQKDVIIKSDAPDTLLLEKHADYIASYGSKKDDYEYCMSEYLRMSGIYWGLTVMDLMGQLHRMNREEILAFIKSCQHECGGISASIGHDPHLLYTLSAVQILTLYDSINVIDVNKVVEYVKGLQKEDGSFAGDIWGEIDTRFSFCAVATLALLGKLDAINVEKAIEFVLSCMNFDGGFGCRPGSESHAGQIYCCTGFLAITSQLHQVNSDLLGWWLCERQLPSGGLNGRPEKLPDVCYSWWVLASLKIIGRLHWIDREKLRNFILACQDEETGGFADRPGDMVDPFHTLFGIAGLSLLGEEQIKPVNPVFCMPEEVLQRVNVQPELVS
The series is described as follows: Prenyltransferase enzyme assay, RabGGT. The series is classed as biochemical. The protocol:
(§1) Enzyme Assays. Prenyltransferases and H-Ras processing inhibition were carried out as described earlier (Hunt et al., Rose et al., Lackner et al., Manne et al., and Lombardo et al).

Series [3] has as its system HCT116 xenografts. Kind of series: HCT116 xenografts in nude mice. The format is in vivo. To be noted: at MTD: 600 mg/kg; for Activity in vivo, cures: cures per mice.
Series [4] concerns cross-linker site in HCT-116 quiescent cell extracts. The series is described as follows: Cross-linking competition with tritium labeled azido analogue BMS-540864. The series is classed as binding, human.
The test system of series [5] is HCT-116 cells. Kind of series: Flow cytometry of HCT-116 P and Q cells (BrdU, p85 PARP, activated caspase 3). The series is classed as cell-based, human. Background: In flow cytometry, cells or beads pass a laser one at a time.
Experimental: Untreated HCT-116 cells in P or in Q state (Panel a) were analyzed by flow cytometry. The y axis represents cell numbers and the x axis DNA content. […] The x axis indicates the level of activated caspase while the y axis represents percentage of total fluorescence adjusted to 100%. […] The x axis indicates the level of BrdU incorporation, while the y axis indicates the p85 cleaved PARP cells.
Series [6] concerns the target geranylgeranyl transferase I (GGTI) (Homo sapiens, UniProt P49354+P53609). The series is described as follows: Prenyltransferase enzyme assay, GGTI. The series is classed as biochemical. The protocol:
as §1

In series [7] the target is FT (Homo sapiens, UniProt P49354+P49356). Kind of series: Prenyltransferase enzyme assay, FT. The series is classed as biochemical. The protocol:
as §1

The target in series [8] is T2, Stress induced-phosphoprotein 1 (Hsp70/Hsp90-organizing protein) (Homo sapiens, UniProt P31948).
T2 construct: endogenous in cells; host or cells: ALL cells (quiescent), nuclear and cytoplasmic fractions
Kind of series: Affinity capture on monomeric avidin, ALL cell fractions, MS peptide hits. The format is binding. The protocol:
(§2) An important first step was to establish a source of cells that grew to high density and could remain viable even without replenishing the medium, so that they would be quiescent (Q). After several trials, the inventors settled on ALL cells. Nuclear and cytoplamic fractions were separated by low speed centrifugation after cell lysis with mild detergent. The nuclear fractions were treated with 0.5 M KCl and the chromatin spun out at 100,000 g for one hour. The cytoplasmic fraction was also spun at 100,000 g for one hour, glycerol was added to 20% and fractions frozen at −80 C. […] The fractions were loaded onto 1 ml columns of monomeric avidin beads that had been pretreated with biotin to block accessible sites and washed with pH 2.8 glycine buffer and the incubation buffer (see FIG. 10). Proteins were eluted from both columns with buffer containing 2 mM biotin, 10% TCA precipitated and analyzed on polyacrylamide gels. Bands A and B from the 1 mm gel shown in FIG. 11 were excised out and submitted to the proteomics group for analysis.

For series [9], the target named is T3, Protein phosphatase 1G (Homo sapiens, UniProt O15355).
T3 construct: endogenous in cells; host or cells: ALL cells (quiescent), nuclear and cytoplasmic fractions
T3 sequence (O15355 1-546): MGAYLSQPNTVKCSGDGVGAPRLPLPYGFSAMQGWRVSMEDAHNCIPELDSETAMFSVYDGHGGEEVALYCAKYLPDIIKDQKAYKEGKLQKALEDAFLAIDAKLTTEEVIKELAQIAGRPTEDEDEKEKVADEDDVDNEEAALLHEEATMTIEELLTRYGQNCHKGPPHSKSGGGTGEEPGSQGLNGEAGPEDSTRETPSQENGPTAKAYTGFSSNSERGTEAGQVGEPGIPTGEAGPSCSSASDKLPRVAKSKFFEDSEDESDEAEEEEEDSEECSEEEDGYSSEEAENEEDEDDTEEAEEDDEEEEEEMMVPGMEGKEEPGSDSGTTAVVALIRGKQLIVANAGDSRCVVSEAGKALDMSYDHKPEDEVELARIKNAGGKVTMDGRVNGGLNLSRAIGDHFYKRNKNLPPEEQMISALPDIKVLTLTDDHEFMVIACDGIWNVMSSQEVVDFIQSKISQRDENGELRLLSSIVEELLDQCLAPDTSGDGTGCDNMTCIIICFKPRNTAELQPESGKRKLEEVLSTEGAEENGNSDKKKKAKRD
The description is as above. The series is classed as binding. The protocol:
as §2

Series [10] concerns the target T4, Programmed cell death (AIF) (Homo sapiens, UniProt O95831).
T4 construct: Two peptides were detected for AIF in band B of the BMS-844472 eluates that were absent from the control eluates; endogenous in cells; host or cells: ALL cells (quiescent), nuclear and cytoplasmic fractions
The description is as above. The series is classed as binding. Here is the method:
as §2

For series [11], the system named is HCT/VM46 xenograft. The series is described as follows: HCT/VM46 multidrug resistant colon carcinoma xenograft. The format is in vivo, mice. The text has this: FIG. 5. […] Panel c. […] Therefore, the consistently observed synergy of the combinations is highly sequence dependent, in vitro and in vivo.

Structures are written as SMILES. A value given as a limit tells only on which side of the number the result lay.

T4 sequence (O95831 102-613): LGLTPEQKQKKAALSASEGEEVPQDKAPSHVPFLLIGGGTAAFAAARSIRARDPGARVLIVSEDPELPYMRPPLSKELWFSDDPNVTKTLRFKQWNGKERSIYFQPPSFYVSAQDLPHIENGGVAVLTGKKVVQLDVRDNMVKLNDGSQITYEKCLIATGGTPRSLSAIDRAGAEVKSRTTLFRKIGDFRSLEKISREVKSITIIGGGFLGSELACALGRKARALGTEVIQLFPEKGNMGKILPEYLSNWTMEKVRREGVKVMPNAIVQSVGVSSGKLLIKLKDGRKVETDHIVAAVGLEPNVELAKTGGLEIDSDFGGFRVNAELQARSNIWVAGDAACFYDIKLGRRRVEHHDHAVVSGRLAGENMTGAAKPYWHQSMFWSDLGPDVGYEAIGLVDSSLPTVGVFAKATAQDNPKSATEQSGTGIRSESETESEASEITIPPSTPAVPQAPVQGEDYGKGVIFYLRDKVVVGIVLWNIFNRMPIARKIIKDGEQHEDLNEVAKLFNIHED
T2 sequence (P31948 whole entry): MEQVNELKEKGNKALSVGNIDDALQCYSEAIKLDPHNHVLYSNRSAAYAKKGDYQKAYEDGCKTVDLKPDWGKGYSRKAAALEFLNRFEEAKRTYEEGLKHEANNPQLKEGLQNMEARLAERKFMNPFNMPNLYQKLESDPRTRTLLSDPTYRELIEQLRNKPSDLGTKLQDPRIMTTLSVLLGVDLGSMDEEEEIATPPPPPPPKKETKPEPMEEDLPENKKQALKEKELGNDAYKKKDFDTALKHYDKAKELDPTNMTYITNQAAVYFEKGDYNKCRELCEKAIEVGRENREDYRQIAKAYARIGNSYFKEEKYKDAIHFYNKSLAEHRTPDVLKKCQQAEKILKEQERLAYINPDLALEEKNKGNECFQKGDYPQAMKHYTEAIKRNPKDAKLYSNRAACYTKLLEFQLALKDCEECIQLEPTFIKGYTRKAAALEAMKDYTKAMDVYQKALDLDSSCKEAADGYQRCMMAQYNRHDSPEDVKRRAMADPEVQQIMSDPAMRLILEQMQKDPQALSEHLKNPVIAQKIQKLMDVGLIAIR

For `Cn1cncc1[C@@](N)(c1ccc(Cl)cc1)c1ccc2c(c1)c(-c1cccc(Cl)c1)cc(=O)n2C` [R-115777], the P/Q activity ratio in series [1] stood at 0.83.
In general, IC50 refers to the concentration at which inhibition is half-maximal. A lower IC50 goes with greater potency in that assay. On to `Cn1cncc1CN1C[C@@H](Cc2ccccc2)N(S(=O)(=O)c2cccs2)Cc2cc(C#N)ccc21` [BMS-225975], for which, in [1], the P/Q activity ratio is 0.7 and the P/Q selectivity is on record as 11-100 1.4. Also, the IC50 in [2] was determined as 12 nM. Further, in [3], the “Activity in vivo, LCK (log cell kill) when no cures were achieved” value came to 0.3 LCK and the “Activity in vivo, cures” value is reported as 0/8. Further, the “competition for the cross-linker site” value in [4] is recorded as “able to compete”. For the same compound, the proapoptotic activity entry in [5] was “does not induce apoptosis”. Besides, half-maximal inhibition in series [6] (IC50) was put at 900 nM.
In the case of `N#Cc1ccc2c(c1)CN(S(=O)(=O)c1ccccc1)[C@H](Cc1ccccc1)CN2Cc1cnc[nH]1` [BMS-212347], the P/Q selectivity in series [1] is on record as 47. In addition, the IC50 stood at 41 nM in [2], 2.4 nM in series [7] and 1200 nM in series [6]. For the same compound, the “Activity in vivo, cures” value in series [3] is given as 7/8.
`N#Cc1ccc2c(c1)CN(S(=O)(=O)CCCNC(=O)CCCCCNC(=O)CCCC[C@H]1SC[C@H]3NC(=O)N[C@H]31)CCN2Cc1cnc[nH]1` [BMS-236724]: the “Peptide Hits Exp 1” value amounted to 15 in series [8], 4 in [9] and 3 in series [10]. The “Peptide Hits Exp 2” value in [8] was 18; in series [9], 1; in series [10] it was 5.
The term IC90 denotes the concentration needed for an effect of 90%. As to `C/C(=C\c1csc(C)n1)[C@@H]1C[C@@H]2O[C@]2(C)CCC[C@H](C)[C@H](O)[C@@H](C)C(=O)C(C)(C)[C@@H](O)CC(=O)N1` [ixabepilone], the 90% effect concentration (IC90) in [1] worked out at 1.3 nM. Also, the “relative sensitivity of P versus Q cells” value in series [1] (P cells more sensitive) is reported as > 83 fold. Besides, the tumor cures result in [11] (cured mice of group) is “did not produce any tumor cures”. For the same compound, the tumor growth delay in series [11] (mouse, in vivo) came out at 1.1 LCK.
`CC(=O)O[C@H]1C(=O)[C@@]2(C)[C@H]([C@H](OC(=O)c3ccccc3)[C@]3(O)C[C@H](OC(=O)[C@H](O)[C@@H](NC(=O)c4ccccc4)c4ccccc4)C(C)=C1C3(C)C)[C@]1(OC(C)=O)CO[C@@H]1C[C@@H]2O` [paclitaxel] registered an IC90 in series [1] of 17.8 nM. Besides, the “Q cell values (IC90)” value in series [1] (Q cells) is listed as “not reached”.
For the compound `O=c1[nH]cc(F)c(=O)[nH]1` [5-fluorouracil], the “preferential cytotoxicity P versus Q” value in series [1] is on record as “preferentially cytotoxic to P tumor cells”.
Turning to `Cn1cncc1CN1C[C@@H](Cc2ccccc2)N(S(=O)(=O)c2ccccc2)Cc2cc(C#N)ccc21` [BMS-223999], the IC50 in [2] stood at 8 nM; in series [7], 1.1 nM; in series [6], 530 nM. For the same compound, the “Activity in vivo, LCK (log cell kill) when no cures were achieved” value in series [3] was determined as 0.4 LCK. In [3], the “Activity in vivo, cures” value is 0/8.
`NC(=O)N1CCC(CC(=O)N2CCC([C@H]3c4ncc(Br)cc4CCc4cc(Cl)cc(Br)c43)CC2)CC1` [SCH66336]: the P/Q activity ratio in [1] is given as 0.74.

The values are drawn from patent publication US20100233172A1, “METHODS OF INHIBITING QUIESCENT TUMOR PROLIFERATION” (Bristol-Myers Squibb Company, priority 2008, published 2010).
